Drawing on ChEMBL document CHEMBL1144673, “Discovery of novel alpha-glucosidase inhibitors based on the virtual screening with the homology-modeled protein structure” (Bioorg Med Chem, 2008), this text covers inhibition for 13 compounds.

In the assay the target is Alpha-glucosidase MAL12 (Saccharomyces cerevisiae S288c) (UniProt P53341). Nature of the assay: Inhibition of bakers yeast alpha-glucosidase at 50 uM.
Sequence of Alpha-glucosidase MAL12 (Saccharomyces cerevisiae S288c) (P53341 whole entry): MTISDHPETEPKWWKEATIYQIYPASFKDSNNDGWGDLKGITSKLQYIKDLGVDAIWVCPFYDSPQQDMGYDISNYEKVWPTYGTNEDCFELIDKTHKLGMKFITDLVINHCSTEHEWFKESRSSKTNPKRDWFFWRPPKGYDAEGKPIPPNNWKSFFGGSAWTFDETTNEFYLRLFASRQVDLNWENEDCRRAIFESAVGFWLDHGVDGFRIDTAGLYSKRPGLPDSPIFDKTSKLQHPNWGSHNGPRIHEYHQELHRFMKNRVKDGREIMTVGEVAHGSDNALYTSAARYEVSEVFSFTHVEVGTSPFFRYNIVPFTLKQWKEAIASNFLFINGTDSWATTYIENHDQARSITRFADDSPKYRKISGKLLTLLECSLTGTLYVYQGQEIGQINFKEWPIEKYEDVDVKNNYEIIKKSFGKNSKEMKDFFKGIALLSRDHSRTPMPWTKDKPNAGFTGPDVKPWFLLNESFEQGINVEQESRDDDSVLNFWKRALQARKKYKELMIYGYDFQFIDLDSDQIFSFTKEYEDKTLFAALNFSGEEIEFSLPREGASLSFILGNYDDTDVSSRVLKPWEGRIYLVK
As usually defined, the inhibition is the change of the read-out against control, counted positive when it falls. With `N#CC1=C(N)n2c(s/c(=C\c3ccccc3F)c2=O)=C(C(N)=O)C1c1ccccc1F` (stereo not drawn), the inhibition came to 62.2%.
`O=C(CSc1nnc(COc2cccc3cccnc23)n1-c1ccccc1)c1ccc(Cl)cc1` registered an inhibition of 66.5%.
`O=C1NC(=O)N(c2ccccc2F)C(=O)/C1=C\c1ccccc1OCc1ccc(C(=O)O)cc1` came in with an inhibition of 54%.
`O=C(Cn1c(=O)n(CC(=O)NCc2ccccc2)c2cc(Cl)ccc21)NCc1ccccc1` displayed an inhibition of 62.4%.
As to `Cn1cc(/C=C/C(=O)NC(=O)c2ccccc2O)c2ccccc21`, the inhibition worked out at 71.4%.
Then `COc1ccc(N2C(=O)NC(=O)/C(=C\c3cn(CC(=O)Nc4ccccc4)c4ccccc34)C2=O)cc1`, with 50.6%.
Regarding `O=C(Nc1nccs1)c1c(O)c2ccccc2n(Cc2ccccc2)c1=O`, the inhibition came to 52.3%.
Then `Cc1ccc(-n2c(SCC(=O)Nc3ccc(F)c(F)c3)nnc2-c2ccccc2)cc1`, with 63.1%; and `Oc1ccc(-c2nnc(Nc3cccc(O)c3)c3ccccc23)cc1`, with 61.4%; and `N#CC1=C(N)n2c(s/c(=C\c3ccc(O)cc3)c2=O)=C(C(N)=O)C1c1ccc(O)cc1` (stereo not drawn), with 59.2%.
Regarding `Cc1ccc(/N=c2\cc(-c3ccc4c(c3)OCO4)oc3ccc(O)cc23)cc1C`, the inhibition came to 58%.
In turn, `O=C(Nc1ccccc1O)c1ccc(Oc2cccc(C(=O)Nc3ccccc3O)c2)cc1` had an inhibition of 70.1%.
Compound `O=C(CSc1nc2ccccc2c(=O)n1-c1ccccc1)NCc1ccccc1` had an inhibition of 50.9%.
